One assay concerns the target T1, human recombinant COX-2 (Homo sapiens, UniProt P35354).
T1 construct: purchased Cayman Chemical, USA 560131
T1 sequence (P35354 18-604): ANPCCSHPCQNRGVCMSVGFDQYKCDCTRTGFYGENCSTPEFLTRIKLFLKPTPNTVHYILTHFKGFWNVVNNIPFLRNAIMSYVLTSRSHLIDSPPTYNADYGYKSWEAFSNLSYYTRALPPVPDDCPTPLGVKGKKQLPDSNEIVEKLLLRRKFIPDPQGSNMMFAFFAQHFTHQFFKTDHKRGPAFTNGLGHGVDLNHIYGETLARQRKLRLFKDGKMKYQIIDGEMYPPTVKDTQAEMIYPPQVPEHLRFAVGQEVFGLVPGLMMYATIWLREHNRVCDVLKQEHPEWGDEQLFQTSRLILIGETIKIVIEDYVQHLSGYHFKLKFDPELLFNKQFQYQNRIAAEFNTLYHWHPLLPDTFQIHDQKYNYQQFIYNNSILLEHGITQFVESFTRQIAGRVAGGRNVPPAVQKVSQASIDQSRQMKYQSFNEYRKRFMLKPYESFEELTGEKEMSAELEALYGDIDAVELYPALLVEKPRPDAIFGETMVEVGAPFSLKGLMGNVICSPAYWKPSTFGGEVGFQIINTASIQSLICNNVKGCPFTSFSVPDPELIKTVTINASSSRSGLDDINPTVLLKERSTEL
Briefly: COX Inhibitor Screening Assay, COX-2 (EIA of PGF2α). In kind it is biochemical. Conditions: for IC50: human recombinant COX-2, Cayman COX inhibitor screening assay kit; for SI (selectivity index, COX-1 IC50/COX-2 IC50): ratio COX-1 IC50/COX-2 IC50; for selective inhibition against COX-2: statement in words, COX-2 versus COX-1. The text has this: (§1) 2-Butanone, ethylcyanoacetate (≥98%), dimethylformamide (≥99.5%), ethanol (≥99%), n-hexane, cyanamide and sulphur (≥99.5%) were bought from Acros Chemical (USA). Diethylamine, sodium sulphate anhydrous and analytical grade NaOH pellets were bought from Fisher Scientific (UK). 1,4-dioxane, concentrated HCl, ethyl acetate, hexane, chloroform, 4-fluorobenzoyl chloride (98%) , 4-methoxyphenyl acetonitrile (≥97%), 4-fluorophenyl acetonitrile (≥99%), and 2-(trifluoromethyl)benzoyl chloride were bought from Aldrich Chemicals. TLC Silica gel 60 F254 was obtained from Merck, USA. COX inhibitor screening assay kit (Item no. 560131) was procured from Cayman Chemical, USA.
(§2) The COX (ovine) Inhibitor Screening Assay was performed mainly to determine the selective inhibition of tested compounds (4a, 4b, 5a, 5b) towards the ovine COX-1 and human recombinant COX-2 isoenzymes. The addition of arachidonic acid (AA) helped to convert the COX component into PGG2, followed by reduction of PGG2 into PGH2. The following addition of SnCl2 converted PGH2 into PGF2α. The assay directly measures the PGF2α0 via enzyme immunoassay (EIA) using a broadly specific antiserum that bound to all PG tracers. Depending on the tested compounds inhibitory effect, the concentration of PGF2α in each well varied and was inversely proportional to the amount of PG tracers that was able to bind to the antiserum. PG tracers-antiserum complex was left to bind to the mouse monoclonal anti-rabbit antibody that has been coated to the well during the 18 hours incubation. Ellman's reagent was added to give distinct yellow coloration to the products from this enzymatic reaction, which absorbed strongly at 412 nm. The intensity of the color was proportional to the amount of PG tracers-antiserum complex bound to the well, which was inversely proportional to the concentration of PGF2α present.
(§3) The inhibitory activity of tested compounds was determined based on IC50 values whereas the selectivity was based on their selectivity indices (SI), which defined as COX-1 IC50/COX-2 IC50. In the assay system, indomethacin was used as non-selective COX inhibitor standard while NS-398 was used as COX-2 selective inhibitor standard.

The target in the next assay is T2, ovine COX-1 (Ovis aries, UniProt P05979).
T2 construct: purchased Cayman Chemical, USA 560131
T2 sequence (P05979 25-600): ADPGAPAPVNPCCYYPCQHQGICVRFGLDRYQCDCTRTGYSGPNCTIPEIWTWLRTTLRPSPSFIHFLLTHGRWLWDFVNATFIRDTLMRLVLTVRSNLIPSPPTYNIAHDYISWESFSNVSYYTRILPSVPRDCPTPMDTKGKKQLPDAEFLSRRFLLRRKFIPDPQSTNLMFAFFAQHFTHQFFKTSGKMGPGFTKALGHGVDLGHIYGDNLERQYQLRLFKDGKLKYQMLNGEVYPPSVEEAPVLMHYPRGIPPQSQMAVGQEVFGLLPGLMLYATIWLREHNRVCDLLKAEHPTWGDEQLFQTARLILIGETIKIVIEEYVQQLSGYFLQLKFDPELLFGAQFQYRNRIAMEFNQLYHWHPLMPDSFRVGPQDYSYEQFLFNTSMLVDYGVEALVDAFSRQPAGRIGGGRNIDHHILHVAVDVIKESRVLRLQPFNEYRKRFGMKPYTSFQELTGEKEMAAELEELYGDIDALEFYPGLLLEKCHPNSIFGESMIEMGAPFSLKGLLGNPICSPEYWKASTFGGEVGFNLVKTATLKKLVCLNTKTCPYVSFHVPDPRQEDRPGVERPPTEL
Briefly: COX (ovine) Inhibitor Screening Assay, COX-1 (EIA of PGF2α). In kind it is biochemical. To be noted: Cayman COX inhibitor screening assay kit.
Source text: as §1, §2, §3

What is called IC50 is the midpoint of a concentration-inhibition curve.

In the case of `Cc1sc2nc(Cc3ccc(F)cc3)[nH]c(=O)c2c1C` [Compound 4a, 2-(4-Fluorobenzyl)-5,6-dimethylthieno[2,3-d]pyrimidin-4(3H)-one], at human recombinant COX-2, the IC50 is 42.2 µM; the “SI (selectivity index, COX-1 IC50/COX-2 IC50)” value stood at 4.81; the “selective inhibition against COX-2” value is recorded as “mild selective inhibition”. This compound showed an IC50 on ovine COX-1 of 203 µM.

Take `COc1ccc(Cc2nc3sc(C)c(C)c3c(=O)[nH]2)cc1` [Compound 4b, 2-(4-Methoxybenzyl)-5,6-dimethylthieno[2,3-d]pyrimidin-4(3H)-one]: at human recombinant COX-2, the IC50 was found to be 143 µM; the “SI (selectivity index, COX-1 IC50/COX-2 IC50)” value was found to be 4.11; the “selective inhibition against COX-2” value is given as “mild selective inhibition”. Inhibition against ovine COX-1 was half-maximal at 586 µM (IC50).

Take `Cc1sc2nc(NC(=O)c3ccc(F)cc3)[nH]c(=O)c2c1C` [Compound 5a, N-(5,6-Dimethyl-4-oxo-3,4-dihydrothieno[2,3-d]pyrimidin-2-yl)-4-fluorobenzamide]: at human recombinant COX-2, the IC50 came to 103 µM; the “SI (selectivity index, COX-1 IC50/COX-2 IC50)” value was found to be 1.08; the “selective inhibition against COX-2” value is reported as “mild selective inhibition”. At ovine COX-1, this compound returned an IC50 of 112 µM.

For `Cc1sc2nc(NC(=O)c3ccccc3C(F)(F)F)[nH]c(=O)c2c1C` [Compound 5b, N-(5,6-dimethyl-4-oxo-3,4-dihydrothieno[2,3-d]pyrimidin-2-yl)-2-(trifluoromethyl)benzamide], at human recombinant COX-2, the concentration for half-maximal inhibition (IC50) is 189 µM; the “SI (selectivity index, COX-1 IC50/COX-2 IC50)” value was 0.12; the “selective inhibition against COX-2” value is listed as “mild selective inhibition”. On ovine COX-1, this compound yielded an IC50 of 21.8 µM.

Values taken from patent US11932656B1, “Thieno[2,3-d]pyrimidines as COX-2 inhibitors” (KING FAISAL UNIVERSITY, priority 2023, dated 2024).
